{"source": "patent US4617302A", "about": "“Inotropic agents” (Eli Lilly and Company, priority 1984, dated 1986)", "key": {"[1]": {"system": "conscious dogs (contractility, LVdP/dt)", "assay": "Cardiac contractility in conscious dogs", "type": "in vivo", "conditions": "Canis lupus familiaris, po; conscious mongrel dogs, fasted eighteen hours, administered in gelatin capsules; by interpolation; read-out: ED50, dose required to produce a 50-percent increase in contractility", "excerpt": "Mongrel dogs of either sex weighing 15-36 kg were chronically instrumented to monitor peak systolic pressure, heart rate, left ventricular pressure and its first derivative, LVdP/dt at 60 mm of mercury. Under halothane-nitrous oxide anesthesia, a precalibrated Konigsberg P22 Pressure Transducer was implanted into the left ventricle through a stab wound at the apex. Following recovery from surgery, a minimum of two weeks was allowed to train the dogs to lie quietly for four-hour periods. This conditioning was necessary to obtain stable, reproducible results from day to day. Dogs were fasted eighteen hours before an experiment. Gross behavioral observations of animals were made throughout each study. Compounds or placebo (lactose) were administered in gelatin capsules. The maximum effects on contractility at various dose levels were determined and plotted and the dose required to produce a 50-percent increase in contractility (ED50) was determined by interpolation. The ED50 for the compound of Example 1 was determined to be 50 mcg/kg."}, "[2]": {"system": "anesthetized dog (ventricular contractility)", "assay": "Ventricular contractility in the anesthetized dog", "type": "in vivo", "conditions": "Canis lupus familiaris, iv; anesthetized mongrel dogs, i.v. bolus in normal saline; by interpolation; read-out: ED50, dose required to produce a peak increase in contractility of 50%", "procedure": "Mongrel dogs of either sex ranging in weight from 7 to 14 kg were used. Anesthesia was induced with sodium pentobarbital (30 mg/kg, i.v.) and maintained with supplemental doses as required. A positive-pressure pump was used to ventilate the dogs through an endotracheal tube (18 strokes/minute, 20 ml/kg stroke^-1), and a heating pad kept the body temperature at 37°-38° C.\nFemoral arterial blood pressure was measured through a polyethylene catheter filled with heparin solution (16 units/ml) and connected to a Statham pressure transducer. A strain-gauge arch sutured to the right ventricle of the heart measured cardiac contractility. Tension on the gauge was adjusted to 50 g and the gain of the recorder (Beckman dynograph) was set so that 50 g caused a 10-mm pen deflection. Cardiac contractile tension was measured as millimeters of pen deflection or grams of tension. The test compounds were administered as an i.v. bolus (2-5 ml) in a normal saline vehicle following a 30-45 minute equilibrium period. […] The maximum effects on contractility at various dose levels were determined and plotted and the dose required to produce a 50% increase in contractility (ED50) was determined by interpolation."}, "Cat Papillary Muscles": {"system": "Cat Papillary Muscles", "assay": "Positive inotropic activity in isolated cat papillary muscles", "conditions": "Felis catus, control = 100 percent, average of 2 to 8 muscles, read-out: Contractility of Papillary Muscle, peak response as percent of control; for activity at 100 µM: Compound Concentration 10^-4 M; for activity at 10 µM: Compound Concentration 10^-5 M", "procedure": "Cats of either sex were anesthetized with Metofane (1,1-difluoro-2,2-dichloroethyl methyl ether, Pittman-Moore). Their hearts were immediately removed and the papillary muscles dissected and suspended in individual organ baths. A platinum hook secured one end of the muscle to an electrode mounted in the bottom of the bath, and a silk thread attached the tendon to a Statham isometric transducer. The baths contained Krebs-Henseleit solution (36° C., bubbled with 95 percent oxygen - 5 percent carbon dioxide) of the following millimolar composition: NaCl, 118; KCl, 4.5; CaCl2, 2.5; KH2 PO4, 1.1; MgSO4, 1.2; NaHCO3, 25; and glucose, 11.\nA base-line tension of 1.5 g was applied to each muscle. Square-wave pulses (5.0 msec. in duration, three times threshold voltage) delivered through the hook electrode and a second electrode positioned near the top of the muscle evoked 12 contractions/minute, which were recorded on a Grass polygraph. After the muscles had equilibrated for 60 minutes, the recorder gain was adjusted so that the pen deflected 10 mm. The test compound was introduced in a solution of normal saline in an amount to bring the final concentration of the compound to 10^-5 or 10^-4 molar. Increases in contractility were tabulated as millimeters of pen deflection in excess of the baseline value. In each experiment the maximum contractility was measured. Test results are summarized in Table I and are expressed as percent of control (control=100 percent). Values are the average of results from 2 to 8 muscles."}}, "data": [{"smiles": "O=C1CCC(c2ccc3c(c2)C2(CC2)C(=O)N3)=NN1", "note": "[Example 1, 5'-(1,4,5,6-tetrahydro-6-oxo-3-pyridazinyl)-spiro[cyclopropane-1,3'-[3H]indol]-2'(1'H)-one]", "values": [{"measurement": "ED50", "setting": "[1]", "value": 0.05, "unit": "mg/kg"}, {"measurement": "ED50", "setting": "[2]", "value": 0.0019, "unit": "mg/kg"}]}, {"smiles": "O=C1CCC(c2ccc3c(c2)C2(CCCC2)C(=O)N3)=NN1", "note": "[Example 2, 5'-(1,4,5,6-tetrahydro-6-oxo-3-pyridazinyl)-spiro[cyclopentane-1,3'-[3H]indol]-2'(1'H)-one]", "values": [{"measurement": "activity at 100 µM", "setting": "Cat Papillary Muscles", "value": 134, "unit": "%"}, {"measurement": "activity at 10 µM", "setting": "Cat Papillary Muscles", "value": 132, "unit": "%"}, {"measurement": "ED50", "setting": "[2]", "value": 0.07, "unit": "mg/kg"}]}, {"smiles": "O=C1CCC(c2ccc3c(c2)C2(CCC2)C(=O)N3)=NN1", "note": "[Example 3, 5'-(1,4,5,6-tetrahydro-6-oxo-3-pyridazinyl)-spiro[cyclobutane-1,3'-[3H]indol]-2'(1'H)-one]", "values": [{"measurement": "activity at 100 µM", "setting": "Cat Papillary Muscles", "value": 132, "unit": "%"}, {"measurement": "activity at 10 µM", "setting": "Cat Papillary Muscles", "value": 138, "unit": "%"}, {"measurement": "ED50", "setting": "[2]", "value": 0.025, "unit": "mg/kg"}]}]}
